The term melting point denotes the temperature of the solid-liquid transition.

The molecule `Nc1ncc(-c2ccc(F)c(Cl)c2)nc1C(=O)Nc1cccnc1` [Example 16, 3-Amino-6-(3-chloro-4-fluorophenyl)-N-pyridin-3-ylpyrazine-2-carboxamide] had a melting point of 236 to 238.5 °C.

As to `Cc1ccc(-c2cnc(N)c(C(=O)Nc3cccnc3)n2)cc1C` [Example 18, 3-Amino-6-(3,4-dimethylphenyl)-N-pyridin-3-ylpyrazine-2-carboxamide], the melting point lay in the range of 178 to 182 °C.

Turning to `Nc1ncc(-c2ccc(F)c(F)c2)nc1C(=O)Nc1cccnc1` [Example 15, 3-Amino-6-(3,4-difluorophenyl)-N-pyridin-3-ylpyrazine-2-carboxamide], the melting point lay within 232 to 234 °C.

Molecule `Nc1ncc(-c2ccccc2F)nc1C(=O)Nc1cccnc1` [Example 20, 3-Amino-6-(2-fluorophenyl)-N-pyridin-3-ylpyrazine-2-carboxamide] yielded a melting point of 221 to 225 °C.

`Nc1ncc(-c2cccc(Cl)c2Cl)nc1C(=O)Nc1cccnc1` [Example 12, 3-Amino-6-(2,3-dichlorophenyl)-N-pyridin-3-ylpyrazine-2-carboxamide] returned a melting point of 239 to 241 °C.

`Nc1ncc(-c2cccc(F)c2)nc1C(=O)Nc1cccnc1` [Example 19, 3-Amino-6-(3-fluorophenyl)-N-pyridin-3-ylpyrazine-2-carboxamide] registered a melting point of 234.5 to 238 °C.

With `Nc1ncc(-c2cccs2)nc1C(=O)Nc1cccnc1` [Example 6, 3-Amino-6-(2-thienyl)-N-pyridin-3-ylpyrazine-2-carboxamide], the melting point lay in the range of 178 to 189 °C.

Take `Nc1ncc(-c2ccc(F)cc2)nc1C(=O)Nc1cccnc1` [Example 10, 3-Amino-6-(4-fluorophenyl)-N-pyridin-3-ylpyrazine-2-carboxamide]: the melting point was in the range of 193 to 197 °C.

Turning to `Nc1ncc(-c2ccc(F)cc2F)nc1C(=O)Nc1cccnc1` [Example 14, 3-Amino-6-(2,4-difluorophenyl)-N-pyridin-3-ylpyrazine-2-carboxamide], the melting point was 232 to 234 °C.

For the molecule `Cc1cc(-c2cnc(N)c(C(=O)Nc3cccnc3)n2)ccc1F` [Example 17, 3-Amino-6-[4-fluoro-3-methylphenyl]-N-pyridin-3-ylpyrazine-2-carboxamide], the melting point is 186 to 189 °C.

These data come from patent US20040186113A1, “Heterocyclic amines for the treatment of conditions associated with gsk-3” (priority 2001, published 2004).
